Results reported in PMC6838683, “Discovery of Human Signaling Systems: Pairing Peptides to G Protein-Coupled Receptors” (Cell, 2019).
Like-named read-outs stand apart in the source and are kept apart here. Residues, ends and D or L forms follow the SMILES beside them.

How the values were obtained:
HA-OGR1 (GPR68) = molecular target: T1, HA-OGR1 (GPR68) (Homo sapiens, UniProt Q15743); assay: Ca2+ mobilization assay (Fluo-4); type: cell-based; settings: mean
T1 construct: HA; expressed in transfected cells
T1 sequence (Q15743 whole entry): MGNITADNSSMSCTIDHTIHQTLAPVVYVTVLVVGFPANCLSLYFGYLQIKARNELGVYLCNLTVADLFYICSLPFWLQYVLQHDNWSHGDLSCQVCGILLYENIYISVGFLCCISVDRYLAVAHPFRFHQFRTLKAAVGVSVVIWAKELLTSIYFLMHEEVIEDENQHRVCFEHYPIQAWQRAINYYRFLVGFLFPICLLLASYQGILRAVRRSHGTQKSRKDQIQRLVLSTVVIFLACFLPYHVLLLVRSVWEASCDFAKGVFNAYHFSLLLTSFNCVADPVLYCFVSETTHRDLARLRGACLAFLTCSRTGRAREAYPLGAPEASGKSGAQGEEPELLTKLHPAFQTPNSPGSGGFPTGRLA
Protocol: Peptide-dependent Ca^2+ mobilization responses were measured in HEK293 stable cell lines (HA-OGR1 (GPR68) and vector pcDNA) ([Saxena et al., 2012]) that were seeded in 96-well plates (1 × 10^5 cells/well) and cultured at 37°C with 5% CO2 to near confluence in DMEM with 10% FBS (Corning). Six hours prior to assay, medium was changed to pH 8.0 or pH 7.4 HAM’s F12 Nutrient Mixture (GIBCO) without FBS and transferred to a 37°C incubator without CO2. One hour prior to stimulation, cells were incubated in pH 8.0 or pH 7.4 HBSS with Ca^2+ and Mg^2+ (GIBCO), supplemented with 15 mM HEPES, 2 μM Fluo-4 AM (Invitrogen) and 1.5 mM probenecid ([…] to prevent Fluo-4 efflux) as described previously ([Pera et al., 2018]). Indicated peptides were pipetted using an automated system and emission signal was recorded at 525 nm after excitation at 485 nm using Flex Station III (Molecular Devices). Ca^2+ mobilization responses were determined by subtracting basal fluorescence from the net peak of agonist-induced fluorescence. Ionomycin (1 μM) was used to calculate the maximum Ca^2+ signal to normalize peptide-mediated responses.

GPR68 = GPR68 (Homo sapiens, UniProt Q15743); assay: Real-time receptor internalization (TR-FRET), concentration-response; type: cell-based; parameters: hIL-2Ra signal peptide (N); expressed in transfected cells; settings: GPR68; mean, SEM and n
Chain of GPR68 (Q15743 2-365 limits assumed): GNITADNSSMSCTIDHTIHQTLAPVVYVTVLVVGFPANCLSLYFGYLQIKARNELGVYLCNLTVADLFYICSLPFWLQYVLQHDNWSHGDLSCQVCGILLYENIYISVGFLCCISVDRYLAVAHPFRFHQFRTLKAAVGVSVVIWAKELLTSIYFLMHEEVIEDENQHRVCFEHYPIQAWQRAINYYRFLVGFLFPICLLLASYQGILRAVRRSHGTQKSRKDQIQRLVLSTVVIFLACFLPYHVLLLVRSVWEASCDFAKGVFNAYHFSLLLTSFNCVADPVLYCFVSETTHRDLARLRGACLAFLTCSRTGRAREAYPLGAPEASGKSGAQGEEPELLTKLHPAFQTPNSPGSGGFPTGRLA
Protocol: 48 hr prior to parallel assaying, SNAP-tagged oGPCR cells were plated (10,000 cells/well) in fibronectin-coated 384-well Epic biosensor microplates (Corning) and poly-D-lysine coated white 384-well plates (for internalization assays). SNAP- GLP-1 receptor was plated alongside orphan receptor cells as an internal assay control for internalization assays. Receptor-expression was induced with 0.1 μg/ml doxycycline.
A TR-FRET real-time internalization assay was used to examine peptide-dependent changes in orphan receptor localization as described previously ([Foster and Bräuner-Osborne, 2018]). Surface-expressed SNAP-tagged receptors were labeled with a cell-impermeable luminescent terbium cryptate (100 nM SNAP Lumi4-Tb; Cisbio, France) for 1 hr at 37°C. Cells were washed to remove excess terbium and incubated with fluorescein-O-acetic acid (100 μM; Sigma Aldrich) for 5 min at 37°C. Peptides were added as for DMR assays, and internalization responses were recorded for 60 min at 37°C using an EnVision 2104 Multimode plate reader (PerkinElmer). 100 nM GLP-1 was used as a positive control for SNAP-GLP1R internalization. Real-time internalization responses were calculated based on TR-FRET (excitation 340 nm; emission 520 nm and 615 nm), and were expressed as the ratio between donor (terbium) and acceptor (fluorescein) emission. For peptide screening analysis (both DMR and internalization assays), we calculated the area under the curve from the real-time traces. As the magnitude of the responses was variable between orphan receptor targets, particularly for the SNAP-tag based internalization assay where the signal is dependent on receptor surface expression, the AUC values were normalized to their respective plate averages and expressed as fold change. Validation experiments for receptor internalization were performed as above. Internalization data was processed in MS-Excel and area under the curve was used to generate concentration-response curves using GraphPad Prism 7.0. Data represent mean ± standard error of the mean (SEM) from at least 3 biologically independent experiments.

BB3 [1] = molecular target: T2, BB3 (Homo sapiens, UniProt P32247); assay: Dynamic mass redistribution (DMR), concentration-response; type: cell-based
T2 construct: hIL-2Ra signal peptide (N); expressed in transfected cells
T2 sequence (P32247 2-399 limits assumed): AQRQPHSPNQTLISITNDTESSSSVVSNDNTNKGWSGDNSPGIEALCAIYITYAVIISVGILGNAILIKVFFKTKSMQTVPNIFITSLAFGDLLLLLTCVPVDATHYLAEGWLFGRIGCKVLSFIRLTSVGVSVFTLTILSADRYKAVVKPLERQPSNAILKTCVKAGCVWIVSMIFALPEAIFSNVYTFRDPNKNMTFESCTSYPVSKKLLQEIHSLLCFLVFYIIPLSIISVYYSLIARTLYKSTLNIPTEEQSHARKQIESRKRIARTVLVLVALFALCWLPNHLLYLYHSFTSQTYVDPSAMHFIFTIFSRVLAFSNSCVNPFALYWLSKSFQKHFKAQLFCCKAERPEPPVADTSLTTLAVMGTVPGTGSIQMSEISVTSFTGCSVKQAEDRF

BB3 [2] = molecular target: T2, BB3; assay: Real-time receptor internalization (TR-FRET), concentration-response; type: cell-based; settings: BB3
BB3 [3] = molecular target: T3, BB3 (Homo sapiens, UniProt P32247); assay: β-arrestin recruitment (Tango), validation; type: cell-based; settings: for EC50: HTLA cells transiently transfected, overnight stimulation, luciferase, mean ± SEM of 3-4 independent experiments in triplicate, read-out: pEC50, β-arrestin recruitment (Tango), BB3 (converted)
T3 construct: host or cells: HTLA cells (HEK293-derived)
T3 sequence (P32247 1-399): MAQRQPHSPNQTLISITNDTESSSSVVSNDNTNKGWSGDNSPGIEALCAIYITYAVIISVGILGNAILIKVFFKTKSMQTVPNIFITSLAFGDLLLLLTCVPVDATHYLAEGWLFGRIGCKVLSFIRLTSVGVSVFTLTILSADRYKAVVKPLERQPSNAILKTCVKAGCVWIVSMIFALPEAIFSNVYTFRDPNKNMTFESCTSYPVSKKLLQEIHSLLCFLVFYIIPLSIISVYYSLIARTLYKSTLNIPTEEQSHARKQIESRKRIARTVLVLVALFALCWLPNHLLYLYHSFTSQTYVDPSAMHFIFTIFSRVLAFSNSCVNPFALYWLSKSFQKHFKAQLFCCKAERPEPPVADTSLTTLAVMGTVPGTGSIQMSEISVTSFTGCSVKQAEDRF
Protocol: (§1) The peptide library was additionally screened against 120 GPCR targets in parallel, including all available orphan receptors and 27 known class A peptide receptors using the Tango assay platform ([Kroeze et al., 2015]). Briefly, HTLA cells (a HEK293 cell line stably expressing a tTA-dependent luciferase reporter and a β-arrestin2-TEV fusion gene) were plated 10,000 cells/well in poly-L-lysine–coated clear-bottom white 384-well plates in DMEM supplemented with 10% FBS, 100 U/ml penicillin and 100 μg/ml streptomycin, 2 μg/ml puromycin and 100 μg/ml hygromycin B. 24 hr later, cells were transfected with Tango GPCR constructs using the calcium phosphate method ([Jordan et al., 1996]). The next day, culture medium was changed to DMEM + 1% dFBS and 10 μM peptides were added for overnight stimulation. Bright-Glo solution (Promega) was incubated for 15–20 min at room temperature, and luminescence was counted using a Trilux luminescence counter (Wallac).
(§2) For subsequent peptide validation experiments using Tango assays, HTLA cells were transiently transfected in 10 cm dishes with the receptor of interest using polyethylenimine (PEI) ([Longo et al., 2013]). After 24 hr, 25,000 cells/well were plated in clear bottom, white-walled 384-well plates. Assays were performed as described above, with luminescence measured using an EnSpire 2300 Multimode plate reader (PerkinElmer). Luminescence counts were exported into Excel and were analyzed using GraphPad Prism 7.

BB3 [4] = molecular target: T2, BB3; assay: IP1 accumulation (Gq/11), HTRF; type: cell-based
human GPCRs = test system: human GPCRs; parameters: method as in Guide to Pharmacology database; settings: max reported value, ref Guide to Pharmacology database, cited from earlier work
Excerpt: Supplement mmc1.xlsx, sheet "HumanGPCRLigands" | column: pKi_value; pKd_value; pEC50_value; pIC50_value

NPY5 = molecular target: T4, NPY5 (Homo sapiens, UniProt Q15761); assay: β-arrestin recruitment (Tango), known peptide receptors; type: cell-based; settings: NPY5R; mean, n = 3
T4 construct: host or cells: HTLA cells (HEK293-derived)
T4 sequence (Q15761 1-445): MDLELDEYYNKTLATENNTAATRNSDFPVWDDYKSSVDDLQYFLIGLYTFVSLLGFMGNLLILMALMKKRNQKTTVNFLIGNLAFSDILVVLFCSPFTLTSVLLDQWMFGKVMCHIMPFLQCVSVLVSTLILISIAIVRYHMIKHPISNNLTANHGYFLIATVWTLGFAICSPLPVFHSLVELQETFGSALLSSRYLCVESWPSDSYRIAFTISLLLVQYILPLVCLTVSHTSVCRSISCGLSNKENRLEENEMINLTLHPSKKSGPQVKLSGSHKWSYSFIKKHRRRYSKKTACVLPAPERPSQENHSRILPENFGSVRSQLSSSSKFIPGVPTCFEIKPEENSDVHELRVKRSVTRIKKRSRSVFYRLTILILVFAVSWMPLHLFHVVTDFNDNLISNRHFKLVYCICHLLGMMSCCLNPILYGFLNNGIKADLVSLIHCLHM
Protocol: as §1, §2

[5] = test system: 120 GPCR targets, including all available orphan receptors and 27 known class A peptide receptors; assay: Peptide library screen, β-arrestin recruitment (Tango, fold change, 10 μM); type: cell-based, human
Protocol: as §1

[6] = receptor grpr_human (GRPR, P30550)

CC[C@H](C)[C@H](NC(=O)[C@H](CCCNC(=N)N)NC(=O)[C@H](CC(=O)O)NC(=O)[C@H](CCSC)NC(=O)[C@@H]1CCCN1C(=O)[C@@H](NC(=O)CNC(=O)[C@H](Cc1ccccc1)NC(=O)[C@@H](N)CCCNC(=N)N)[C@@H](C)CC)C(=O)NCC(=O)N[C@@H](CCCNC(=N)N)C(=O)N[C@@H](CC(N)=O)C(=O)N[C@@H](CCCNC(=N)N)C(=O)N[C@@H](CC(C)C)C(=O)N[C@@H](CO)C(=O)N[C@@H](CC(N)=O)C(=O)N[C@@H](CO)C(=O)N[C@@H](CCCNC(=N)N)C(=O)NCC(=O)O [128 resynthesized] (H-RFGIPMDRIGRNRLSNSRG-OH)
Emax (HA-OGR1 (GPR68); receptor GPR68, SEM and n (3), read-out: Calcium mobilization assays Emax (% ionomycin)): 34.5%

CC[C@H](C)[C@H](NC(=O)[C@H](CCCNC(=N)N)NC(=O)[C@H](CC(=O)O)NC(=O)[C@H](CCSC)NC(=O)[C@@H]1CCCN1C(=O)[C@@H](NC(=O)CNC(=O)[C@H](Cc1ccccc1)NC(=O)[C@@H](N)CCCNC(=N)N)[C@@H](C)CC)C(=O)NCC(=O)N[C@@H](CCCNC(=N)N)C(=O)N[C@@H](CC(N)=O)C(=O)N[C@@H](CCCNC(=N)N)C(=O)N[C@@H](CC(C)C)C(=O)N[C@@H](CO)C(=O)N[C@@H](CC(N)=O)C(=O)N[C@@H](CO)C(=O)N[C@@H](CCCNC(=N)N)C(=O)NCC(=O)O [Osteocrin_(33-50)] (H-RFGIPMDRIGRNRLSNSRG-OH)
Emax (HA-OGR1 (GPR68); GPR68, data from resynthesized peptide, SEM and n, read-out: Emax, Ca2+ mobilization (% iono)): 34.5%
pEC50, Internalization (AUC) (GPR68): Response >1uM

CSCC[C@H](NC(=O)[C@H](Cc1ccccc1)NC(=O)[C@H](Cc1c[nH]cn1)NC(=O)CNC(=O)[C@@H](NC(=O)[C@H](C)NC(=O)[C@H](Cc1c[nH]c2ccccc12)NC(=O)[C@H](CC(C)C)NC(=O)[C@H](CC(N)=O)NC(=O)CN)[C@@H](C)O)C(N)=O [Peptide 59, Neuromedin B, reference compound]
EC50 (BB3 [1]): 37.2 nM
Emax, DMR (peak) (BB3 [1]; BB3, mean, SEM and n): 183.2
Emax, Internalization (AUC) (BB3 [2]; mean, SEM and n): 26.4
EC50 (BB3 [2]; mean, SEM and n, read-out: pEC50, Internalization (AUC) (converted)): 1950 nM
Emax, Tango (fold over basal) (BB3 [3]; BB3, mean, SEM and n): 5.0 fold over basal
pEC50, Tango (fold over basal) (BB3 [3]; BB3, mean, SEM and n): 5.67
EC50 (BB3 [3]): 2000 nM
Emax, IP1 (BB3 [4]; BB3, mean, SEM and n): 81.0 nM
EC50 (BB3 [4]; pEC50, IP1 accumulation (Gq/11), BB3, HTRF IP-One, 30 min, 37°C, mean ± SEM of 3-4 independent experiments in triplicate, peptide 158 n = 2): 407 nM
pIC50_value (human GPCRs; [6]): 7.5
pKi_value (human GPCRs; [6]): 8.1
pKi_value (human GPCRs; receptor nmbr_human (NMBR, P28336)): 10.3

CSCC[C@H](NC(=O)[C@H](CC(C)C)NC(=O)[C@H](Cc1c[nH]cn1)NC(=O)CNC(=O)[C@@H](NC(=O)[C@H](C)NC(=O)[C@H](Cc1c[nH]c2ccccc12)NC(=O)[C@H](Cc1c[nH]cn1)NC(=O)[C@H](CC(N)=O)NC(=O)CNC(=O)[C@H](CCCNC(=N)N)NC(=O)[C@@H]1CCCN1C(=O)[C@H](Cc1ccc(O)cc1)NC(=O)[C@H](CCSC)NC(=O)[C@H](CCCCN)NC(=O)[C@@H](NC(=O)[C@H](CC(C)C)NC(=O)[C@@H](NC(=O)[C@@H](NC(=O)CNC(=O)CNC(=O)CNC(=O)[C@H](C)NC(=O)[C@@H]1CCCN1C(=O)[C@H](CC(C)C)NC(=O)[C@@H]1CCCN1C(=O)[C@@H](N)C(C)C)[C@@H](C)O)C(C)C)[C@@H](C)O)C(C)C)C(N)=O [Peptide 167, gastrin-releasing peptide, reference compound]
EC50 (BB3 [2]; pEC50, internalization): > 10000 nM
EC50 (BB3 [3]): > 10000 nM
pIC50_value (human GPCRs; [6]): 10
pKi_value (human GPCRs; [6]): 8.2

SRTHRHSMEIRTPDINPAWYASRGIRPVGRF [Peptide 183]
Emax, Tango (fold over basal) (NPY5): 6.6 fold over basal
pEC50, Tango (fold over basal) (NPY5): 5.60
Active at: (activity in b-arrestin recruitment assays) ([5]; Tango, receptor(s) at which the known library peptide was active, among its known GPCR target(s), validated pairings): PrRP
Confirmation of known target in Tango ([5]; repeat hitters of the peptide library screen, the value names the known receptor(s) confirmed in the β-arrestin recruitment (Tango) screen): PrRP
